Test results as given in patent US20240216250A1, “COSMETIC PEPTIDES FOR IMPROVING SKIN REJUVENATION” (Lean Life Sciences, Inc., priority 2021, published 2024).
Ends that are not written are not given here.

Tests used:
3T3-L1 fibroblast = assay: Collagen and fibronectin production in 3T3-L1 fibroblast by ELISA, with cell number; format: cell-based, mouse; settings: across treatment groups
Excerpt: Effects of […] (SEQ ID NO: 5) on collagen and fibronectin production are validated in mouse fibroblast. A mouse fibroblast cell line is purchased from American Type Culture Collection (ATCC) to be used in all in vitro studies (3T3-L1 CL-173). The cells are first thawed into two T75 flasks per 1 million cell vial in basal medium I (BMI), which is composed of DMEM (4.5 g/l glucose) supplemented with 10% FBS and 1% Penicillin Streptomycin (P/S). The media is changed the following day, and on day 3, the cells are seeded in 96-well plates (200 μl/well). The peptide was administered to 3T3-L1 fibroblast in five varying concentrations. Collagen and fibronectin produced from the cell was assessed in the cell culture media 3 days after the peptide treatment by ELISA.

prohibitin = target: T1, prohibitin (Mus musculus, UniProt P67778); assay: ATS/prohibitin binding by ATS magnetic beads, immunoprecipitation and western blot; settings: fractionated proteins from adipocytes captured on ATS magnetic beads, western blotting (A of FIG. 2)
T1 construct: Fractionated proteins isolated from adipocytes were incubated with the ATS magnetic beads; endogenous in cells; probably 3T3-L1
T1 sequence (P67778 2-272 limits assumed): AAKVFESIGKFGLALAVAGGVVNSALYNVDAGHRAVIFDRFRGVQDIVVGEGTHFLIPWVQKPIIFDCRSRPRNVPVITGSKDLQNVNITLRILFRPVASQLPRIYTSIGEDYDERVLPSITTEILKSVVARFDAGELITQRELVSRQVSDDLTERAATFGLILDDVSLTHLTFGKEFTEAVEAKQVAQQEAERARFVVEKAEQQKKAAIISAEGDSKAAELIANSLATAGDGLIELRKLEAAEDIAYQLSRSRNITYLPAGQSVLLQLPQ
Excerpt: FIG. 2: ATS/prohibitin binding determined by immunoprecipitation and western blot (A of FIG. 2). Location and degree of prohibitin expression in pre- or mature adipocytes. PM, plasma membrane; Cyt, Cytoplasm (B of FIG. 2). Confocal micrographs showing the location of prohibitin in mature- or pre-adipocytes (C of FIG. 2).
It was confirmed that prohibitin shifts its location to the cell membrane as adipogenesis progresses and ATS binds to prohibition. The ATS/prohibitin binding was verified in pre- or mature adipocytes (Won, Y. W. et al. Nat Mater 13, 1157-1164, (2014)). Fractionated proteins isolated from adipocytes were incubated with the ATS magnetic beads and the protein captured by ATS was identified by western blotting. […] Prohibitin is observed in several intracellular locations at varying expression levels depending on the degree of adipogenesis (Wang, P. et al. Cell Mol Life Sci 61, 2405-2417, (2004); Patel, N. et al. Proceedings of the National Academy of Sciences of the United States of America 107, 2503-2508, (2010)). The degree and location of prohibitin expression in pre- or mature adipocytes was determined. […] Confocal microscopy also verified the prohibitin expression on the cell membrane of mature adipocytes (C of FIG. 2). High-level prohibitin expression on the cell membrane of mature adipocytes is important to the ATS/prohibitin interaction.

3T3-L1 mature adipocytes = assay: Lipid accumulation in 3T3-L1 adipocytes by Oil Red O staining, with cell count; format: cell-based, mouse; settings: Oil Red O, microscopy, peptides at 100 μM, three times per week for three weeks (Day 21), vs non-treated control
Protocol: FIG. 3: Representative photomicrographs showing Oil Red O-stained mature adipocytes treated with peptides at 100 μM (Day 21). H: Quantitative analysis of the lipids accumulated in the adipocytes (Day 21). Control absorbance: 0.526 (Red line). I: Relative cell counts on day 21.
The effects of the minimal short peptides in blocking lipid accumulation in adipocytes were compared with their parent full-length peptide. After generating five different 3 amino acid fragments (KGG, GGR, GRA, RAK, and AKD) from the original ATS peptide (KGGRAKD (SEQ ID NO:1)), each peptide was administered to 3T3-L1 pre-adipocytes in five varying concentrations. Peptides were treated to the adipocytes three times per week for three weeks. Oil Red O staining was utilized to assess the lipid contents in mature adipocytes in culture. The morphological characteristics of 3T3-L1 mature adipocytes were observed by microscopy. […] Furthermore, the lipids were quantitatively analyzed.
The number of viable cells is counted prior to Oil Red O staining using Cell Counting Kit 8 (Dojindo). This cell viability study allows one to determine potential toxicities of the peptides and compensate for cell number variation-causing artifacts. Oil Red O is dissolved in isopropanol at […] to create a working solution. 12 ml of Oil Red O working solution is mixed with 8 ml dH2O and incubated for 10 minutes. This solution is then filtered using a 0.2 μm syringe filter. Adipocytes seeded on 96-well plates are washed with PBS twice. 10% formaldehyde is added for initial fixation and the plates are incubated for at least 30 minutes. The formaldehyde is removed and the cells are once again washed twice, this time with dH2O. 60% isopropanol is added to each well. The plates are incubated for 5 minutes. The isopropanol is removed from the wells and replaced with Oil Red O working solution. The plates are incubated for an additional 10 minutes. The Oil Red O solution is removed and washed four times with dH2O. Lastly, digital micrographs of the lipid droplets in adipocytes are taken using a light microscope. After the staining protocol, all plates are washed three times with 60% isopropanol. Each time, 5 minutes of gentle rocking was used. The Oil Red O is extracted with 100% isopropanol with gentle rocking for 5 minutes. 200 μl isopropanol per well is used as a background to measure absorbance at 492 nm using a BioTek microplate reader.

3T3-L1 cells = assay: Fructose, glucose and sucrose concentration in adipocytes (3T3-L1 cell lysates, Fructose Assay Kit); format: cell-based, mouse; settings: Examples 1-2 to 1-11, same manner as Example 1-1
Protocol: Fructose concentration in 3T3-L1 cell lysates was measured using the Fructose Assay Kit (Abcam, Cambridge, UK). Six-well plates were seeded with 5×10^5 3T3-L1 cells/well one day before treating with 150 μM peptide. After 48 hours of treatment, the cells were harvested and fructose concentrations were assayed according to the manufacturer's instruction.
In order to confirm the effect of peptides on reducing the fructose level in adipocytes, three groups of adipocytes were prepared. Among the three groups, one group was treated with GGR, and another group was treated with RAK. The remaining group was not treated with any peptides and used as a control group. […] Fructose—an intermediate metabolite of glucose—was measured to further probe glucose metabolism. 3T3-L1 cells treated with either peptide had lower fructose concentrations than untreated cells (FIG. 1).
An additional group of adipocytes are treated with one of KGGRAKD, KGG, GGR, GRA, RAK, AKD, DKA, KAR, ARG, RGG, GGK, and DKARGGK in the same manner as Example 1-1.

Binding of ATS to prohibitin (prohibitin) | Substance | Cell number at the end point (toxicity) (3T3-L1 fibroblast) | Number and size of lipid droplets in adipocytes (3T3-L1 mature adipocytes) | Fructose concentration in adipocytes vs control group (3T3-L1 cells)
– | ACTGSTQHQGGGSESPLKRQG | almost the same across the treatment groups | – | –
specifically binds to prohibitin | KGGRAKD | – | smaller than those in the non-treated control | significantly lower than the control group
